Assay results: publication PMC11674305, “Inhibition of Neural Crest Cell Migration by Strobilurin Fungicides and Other Mitochondrial Toxicants” (Cells, 2024)

Columns and labels:
[1] = tested on: neural crest cells (NCC); assay type: cell-based, human
Procedure: The research group initially developed the first version of the test in 2012 [40]. The test has been further improved and characterized. To perform the cMINC assay, NCCs were thawed in N2-S Medium and seeded on the day of migration-1 (DoM-1) on a 96-well polystyrene plate (Corning, Glendale, AZ, USA) around stoppers, to create a cell-free area of 2 mm diameter (Platypus Technologies, Madison, WI, USA). The cells were resuspended in N2-S Medium supplemented with […] of the cytokines EGF and FGF, and then counted and seeded around the stoppers at a density of 95,000 cells/cm^2. After 24 h, the stoppers were removed, and the medium was exchanged. […]
On day 2, cells were stained with 533 nM calcein-AM and 1 μg/mL H-33342 (both from Sigma, Steinheim, Germany) and observed using two different channels on the Cellomics ArrayScan VTI imaging microscope (Thermo Fisher, Pittsburgh, PA, USA) to assess viability and migration. […] Cell viability was assessed by taking four pictures outside of the ROI with 10× magnification objective. Viable cells were defined as H-33342 and calcein-AM double-positive cells and calculated by an automatic algorithm of the ArrayScan VTI 700 Series software as described earlier. […] The average response (relative to solvent control) of the lowest two test concentrations was calculated, and all other data points of the same curve were divided by this average value. […]

[2] = tested on: neural crest cells (NCC); assay: cMINC (UKN2) assay: circular migration of neural crest cells, with viability; assay type: cell-based, human; conditions: for Ratio: migration/cytotoxicity ratio, hit requires ≥ 1.3, HTC used where no viability effect
Procedure: The research group initially developed the first version of the test in 2012 [40]. The test has been further improved and characterized. To perform the cMINC assay, NCCs were thawed in N2-S Medium and seeded on the day of migration-1 (DoM-1) on a 96-well polystyrene plate (Corning, Glendale, AZ, USA) around stoppers, to create a cell-free area of 2 mm diameter (Platypus Technologies, Madison, WI, USA). The cells were resuspended in N2-S Medium supplemented with […] of the cytokines EGF and FGF, and then counted and seeded around the stoppers at a density of 95,000 cells/cm^2. After 24 h, the stoppers were removed, and the medium was exchanged. The removal of the stoppers initiates migration of the NCCs into the cell-free area. For the treatment, the 5x-concentrated toxicant solution was added to the medium 24 h after stopper removal.
On day 2, cells were stained with 533 nM calcein-AM and 1 μg/mL H-33342 (both from Sigma, Steinheim, Germany) and observed using two different channels on the Cellomics ArrayScan VTI imaging microscope (Thermo Fisher, Pittsburgh, PA, USA) to assess viability and migration. For the migration, four pictures were taken in the region of interest (ROI) (5× magnification objective). Migration data were obtained using the software “Ringassay” (http://invitrotox.uni-konstanz.de/ (accessed on 3 November 2024)), which can estimate the previously cell-free area and count the number of H-33342 and calcein-AM double-positive cells. Cell viability was assessed by taking four pictures outside of the ROI with 10× magnification objective. Viable cells were defined as H-33342 and calcein-AM double-positive cells and calculated by an automatic algorithm of the ArrayScan VTI 700 Series software as described earlier. […] Each plate included wells for testing of negative (0.1% DMSO solvent) and positive controls (200 nM cytochalasin D) in addition to the wells for blinded samples. The data from control wells were used as acceptance criteria of the assay. […] Renormalization of the concentration–response curves was performed after a visual inspection that the two lowest test-concentration data points are in the no-effect range. The average response (relative to solvent control) of the lowest two test concentrations was calculated, and all other data points of the same curve were divided by this average value. The calculations of the benchmark concentrations 10 for viability (BMC10 (V)) and 25 for migration (BMC25 (M)) were performed with the online available BMC software (http://invitrotox.uni-konstanz.de/ (accessed on 4 November 2024)).

`CO/C=C(/C(=O)OC)c1ccccc1COc1cccc(C(F)(F)F)n1` [Picoxystrobin, picoxystrobin] was tested. Which “BMC10 (V)” value [1] did it give?
The value was 2.8 µM.

What about the “concentration range at which migration was inhibited” value ([1]; galactose medium) of the same compound?
Its value is about 100 nM.

What about the Migration ([2]; Pre-Screen 1, single concentration 1:1000 of stock, in most cases 100 μM) of the same compound?
Its Migration is 65 % of control.

What about the “effect of 1% HSA on inhibition of NCC migration” value ([2]; medium supplemented with 1% human serum albumin) of the same compound?
The value was “did not alter the effect”.

And the “BMC25 (M)” value ([2]; migration, primary screen, 24 h exposure)?
Its value is 1e-05 M.

What about the Ratio [2] of the same compound?
The Ratio was 6.0.

And the Ratio ([2]; listed as BC2)?
The Ratio was 6.1.
